Test results published in US20020045764A1, “Tubulin binding compounds (COBRA)” (Parker Hughes Institute, priority 1998, published 2002).
Each block holds one molecule with its values, some of them ahead of it.

Experiments:
U87 = test: MTT assay; type: cell-based, human; details: 24-36 hours
Experimental: (§1) The antiproliferative activity of […] and the control mono-THF containing compounds 8.2, 8.3, and 8.4 was examined against a panel of 5 different human tumor cell lines using standard MTT (3-[4,5-dimethylthiazol-2-yl]-2,5-diphenyl tetrazolium bromide) assays^18 (Boehringer Mannheim Corp., Indianapolis, Ind.).
(§2) Briefly, exponentially growing brain tumor cells were seeded into a 96-well plate at a density of 2.5×10^4 cells/well and incubated for 36 hours at 37° C. prior to drug exposure. On the day of treatment, culture medium was carefully aspirated from the wells and replaced with fresh medium containing the test or control compounds at concentrations ranging from 0.1 to 250 μM. Triplicate wells were used for each treatment. The cells were incubated with the various compounds for 24-36 hours at 37° C. in a humidified 5% CO2 atmosphere. To each well, 10 μl of MTT (0.5 mg/ml final concentration) was added and the plates were incubated at 37° C. for 4 hours to allow MTT to form formazan crystals by reacting with metabolically active cells . The formazan crystals were solubilized overnight at 37° C. in a solution containing 10% SDS in 0.01 M HCl. The absorbence of each well was measured in a microplate reader (Labsystems) at 540 nm and a reference wavelength of 690 nm. To translate the OD 540 values into the number of live cells in each well, the OD540 values were compared to those on standard OD540-versus-cell number curves generated for each cell line. The percent survival was calculated using the formula: % survival=Live cell number[test]×100/Live cell number[control].
(§3) IC50 values were calculated by non-linear regression analysis using an Graphpad Prism software version 2.0 (Graphpad Software, Inc., San Diego, Calif.).
(§4) The following human cancer cell lines were used in the present study: BT-20, breast cancer; MDA-MB-231, breast cancer; PC3, prostate cancer; U87 and U373, glioblastoma; NALM-6, B-lineage acute lymphoblastic leukemia. These cell lines were obtained from American Type Culture Collection (Manassas, Va.) and maintained as continuous cell lines in Dulbecco's modified Eagles's medium supplemented with 10% fetal bovine serum and antibiotics.

NALM-6 = test: MTT assay; type: cell-based, human; details: 24-36 hours
Experimental: as §1, §2, §3, §4

MDA-MB-231 = test: MTT assay; type: cell-based, human; details: 24-36 hours
Experimental: as §1, §2, §3, §4

PC-3 = test: MTT assay; type: cell-based, human; details: 24-36 hours
Experimental: as §1, §2, §3, §4

SQ20B = test: MTT assay; type: cell-based, human; details: 24-36 hours
Experimental: as §1, §2, §3

Bovine brain tubulin = target: T1, Bovine brain tubulin (Bos taurus, UniProt P81947+Q6B856); test: Tubulin turbidity assay (GTP-induced tubulin polymerization); type: biochemical; details: 1 mg/ml tubulin, 1 mM GTP, 37° C., OD 350 nm
T1 construct: purchased Sigma, St. Louis, Mo; host or cells: bovine brain (tissue-purified)
T1 sequence (P81947 whole entry): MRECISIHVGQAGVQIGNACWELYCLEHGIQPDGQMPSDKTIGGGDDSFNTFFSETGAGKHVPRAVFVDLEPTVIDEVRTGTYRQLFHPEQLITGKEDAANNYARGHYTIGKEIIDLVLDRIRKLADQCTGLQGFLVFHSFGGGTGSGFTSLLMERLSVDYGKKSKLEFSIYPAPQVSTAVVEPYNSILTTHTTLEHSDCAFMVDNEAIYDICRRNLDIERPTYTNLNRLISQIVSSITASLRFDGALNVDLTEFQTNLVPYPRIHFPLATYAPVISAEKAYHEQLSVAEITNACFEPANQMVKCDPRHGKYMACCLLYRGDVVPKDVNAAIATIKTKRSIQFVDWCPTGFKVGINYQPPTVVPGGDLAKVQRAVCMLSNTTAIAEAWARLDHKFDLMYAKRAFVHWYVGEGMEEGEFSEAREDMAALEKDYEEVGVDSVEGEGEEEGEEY
T1 sequence (Q6B856 whole entry): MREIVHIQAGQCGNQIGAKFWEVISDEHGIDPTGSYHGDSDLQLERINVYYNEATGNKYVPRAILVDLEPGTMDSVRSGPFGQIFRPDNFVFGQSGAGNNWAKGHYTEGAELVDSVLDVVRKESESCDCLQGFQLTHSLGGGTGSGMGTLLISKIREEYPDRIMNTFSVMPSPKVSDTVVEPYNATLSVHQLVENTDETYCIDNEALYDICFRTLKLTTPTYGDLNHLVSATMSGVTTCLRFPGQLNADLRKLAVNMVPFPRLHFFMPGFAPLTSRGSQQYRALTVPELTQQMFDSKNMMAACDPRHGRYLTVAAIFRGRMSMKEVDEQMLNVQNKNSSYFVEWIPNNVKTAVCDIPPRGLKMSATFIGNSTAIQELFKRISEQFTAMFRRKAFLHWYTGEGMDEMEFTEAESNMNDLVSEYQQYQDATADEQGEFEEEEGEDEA
Experimental: Bovine brain tubulin (Sigma, St. Louis, Mo.) was used in standard turbidity assays to test the effects of compounds COBRA-1 and COBRA-2 as well as control compounds on GTP-induced tubulin polymerization. Compounds (in 1% DMSO) were added to tubulin (1 mg/ml, 0.1M MES, 1 mM EGTA, 0.5 mM MgCl2, 0.1 mM EDTA, 2.5M glycerol, 1 μg/ml leupeptin, 1 μg/ml aprotinin, pH 6.5) followed by stimulation of polymerization with 1 mM GTP at 2 minutes and 1 mM taxol at 30 minutes. Optical density was measured using a Becton Dickinson UV spectrophotometer (350 nm) using a thermostated cuvette holder to keep the reaction at 37° C. Readings obtained from the spectro-photometer were standardized by subtracting the background absorbance of the compound in water from the sample reading following drug addition.
To test the latitude of the structure at the opposite end of the molecule from the long chain (head region), three new COBRA compounds were synthesized according to the schemes shown below: COBRA-3, COBRA-4, and COBRA-5. Each of these compounds was then tested for tubulin depolymerization activity, using the tubidity assay described in the Examples above.
Each of these compounds was assayed for effects on GTP-dependent tubulin polymerization, using the methods described above.

[1] = test system: zebrafish (ZF) (Danio rerio) embryos; test: Zebrafish embryo model, cell division and development; type: in vivo
Experimental: ZF eggs were removed from their chorions by mild digestion in 1% Trypsin-EDTA (Sigma) for 10 minutes at 28.5° C. (Standard temperature—ST), washed three times in “egg water”^15-16 and twice in “embryonic medium” (EM)^15-16. The dechorionated two-cell stage cleaving eggs/embryos were transferred to the 24-well plastic cell culture plates (Costar, City, State) filled with EM or Hank's Balanced Salt Saline (HBSS, Gibco, City, State). Dechorionated embryos (10-12 per well) were exposed to the drugs at a constant ST for 0.5-24 hours. The final volume of the media in each well was 500 μL. All reference as well as test compounds were used at concentrations ranging from 10 μM to 4 mM. The title compounds were dissolved in DMSO and then diluted serially with the incubation medium. The final concentration of DMSO in the wells was 1.2% (with the exception of the etoposide treatment where it was 3%). The sham-treated control embryos were incubated in EM or HBSS in the presence of 1.2% (or 3%) DMSO.
Observations of cell division and development of the ZF embryos were carried out using a SMZ-10A stereo microscope (Nicon, City, State), once every 30 minutes within the first 3 hours of incubation and at 6, 12 and 24 hours, as well. […] The stereo microscope was fitted with a specially designed transparent heating tray in order to keep embryos at ST during observations. Pictures of the embryos were taken with a H-III Photomicrographic System (Nicon) using Ektachrome 64X film (Kodak, Rochester, N.Y.).

Nalm-6 leukemia cells = test: Transmission electron microscopy; type: cell-based, human; design: dose or concentration left out as unconfirmed
human tumor cell lines = test: MTT assays, panel of human tumor cell lines (overall statement); type: cell-based; details: 0.1 to 250 μM
Experimental: as §1
as §2, with “The formazan crystals were solubilized overnight at 37° C. in a solution containing 10% SDS in 0.01 M HCl.” left out, “To translate the OD 540 values into the number of live cells in each well, the OD540 values were compared to those on standard OD540-versus-cell number curves generated for each cell line.” left out, “number[control]. […]” for “number[control].”

U373 brain tumor cells [2] = test: Two-photon confocal laser scanning microscopy, DiA-labeled cells; type: cell-based, human; details: for cell morphology: U373, 100 μM
Experimental: In some experiments, COBRA-1 treated brain tumor cells were labeled with the membrane dye DiA and imaged using multiphoton microscopy. The individual tumor cells were imaged 1 hour before adding 100 μM COBRA- 1. The total imaging period was 3 hours.
U373 brain tumor cells were labeled with the membrane dye DiA and imaged using two-photon microscopy.
Arrows denote membrane ruffles formed in the direction that the cell is crawling. Arrowheads denote the trailing edge or the edge where the cell is retracting. The cell was imaged 1 hour before adding 100 μM DDE261 (FIG. 9A). […] The cell continued to shrink throughout the 3 hour imaging period (FIGS. 9E and 9F). The white material in the color photographs is the dye, DiA. The Scale Bar denotes 20 microns.

[3] = test system: BT-20 breast cancer cells; test: Cytotoxicity by confocal microscopy (tubulin immunofluorescence); type: cell-based, human
Experimental: (§5) Cells were incubated at 37° C. for the indicated time periods with the title compounds. At the end of the incubation, cells were washed twice with PBS and fixed in 2% paraformaldehyde. The cells were permeabilized and non-specific binding sites were blocked with 2.5% BSA in PBS containing 0.1% Triton X-100 for 30 minutes. Tubulin expression was examined by immunofluorescence using a monoclonal antibody against α-tubulin (Sigma Chemical Co, St. Louis, Mo.) at a dilution of 1:1000 and an anti-mouse IgG conjugated to FITC. Cells were washed in PBS and counterstained with toto-3 (Molecular Probes Inc., Eugene, Oreg.) for 10 minutes at a dilution of 1:1000. Cells were washed again with PBS and the coverslips were mounted with Vectashield (Vector Labs, Burlingame, Calif.) and viewed with a confocal microscope (Bio-Rad MRC 1024) mounted in a Nikon Labhophot upright microscope. Digital images were saved on a Jaz disk and processed with Adobe Photoshop software (Adobe Systems, Mountain View, Calif.).
(§6) The ultrastructural changes in human breast and glioblastoma cancer cells treated with COBRA-1 or COBRA-2 were examined by confocal microscopy and by transmission electron microscopy, using methods previously reported^19.

U373 brain tumor cells [4] = test: as above; type: cell-based, human
Experimental: as §5, §6

IC50 (U87; Homo sapiens, U-87 MG): > 250 µM
IC50 (MDA-MB-231; Homo sapiens): > 250 µM
IC50 (PC-3; Homo sapiens): > 250 µM
SMILES: OCC(O)[C@H]1CC[C@H](CO)O1 (some centres unmarked) [Compound 8.4]
IC50 (NALM-6; Homo sapiens): > 250 µM
IC50 (SQ20B; Homo sapiens): > 250 µM

SMILES: CCCCCCCCCCCC[C@@H](O)[C@H]1CC[C@H]([C@@H](O)CO)O1 [COBRA-4]
effect on GTP-dependent tubulin polymerization (turbidity) (Bovine brain tubulin): caused partial depolymerization of tubulin and completely inhibited its polymerization in the presence of GTP

SMILES: CN(Cc1cnc2nc(N)nc(N)c2n1)c1ccc(C(=O)N[C@@H](CCC(=O)O)C(=O)O)cc1 [methotrexate, reference compound]
effect on gastrulation ([1]; 1-4 mM): failed to gastrulate
effect on cell division during cleavage and blastula stages ([1]; by 4 hours of incubation): no visible effect

IC50 (U87; Homo sapiens, U-87 MG): > 250 µM
IC50 (MDA-MB-231; Homo sapiens): > 250 µM
IC50 (PC-3; Homo sapiens): > 250 µM
SMILES: C[C@@H](O)[C@H]1CC[C@H](CO)O1 [Compound 8.3]
IC50 (NALM-6; Homo sapiens): > 250 µM
IC50 (SQ20B; Homo sapiens): > 250 µM

SMILES: CC[C@]1(O)C[C@H]2CN(CCc3c([nH]c4ccccc34)[C@@](C(=O)OC)(c3cc4c(cc3OC)N(C=O)[C@H]3[C@@](O)(C(=O)OC)[C@H](OC(C)=O)[C@]5(CC)C=CCN6CC[C@]43[C@@H]65)C2)C1 [vincristine, reference compound]
effect on ZF embryos ([1]; 100 μM in EM or HBSS): rapid total cell division blockade, cell fusion and developmental arrest
time until two-cell stage embryos stopped cleaving ([1]; 100 μM in EM or HBSS): ≤ 15 min

SMILES: CCCCCCCCCCCC[C@@H](O)[C@H]1CC[C@H](CO)O1 [COBRA-1]
IC50 (U87): 107 µM
IC50 (NALM-6): 49 µM
IC50 (MDA-MB-231): 77 µM
IC50 (PC-3): 171 µM
ultrastructural changes (Nalm-6 leukemia cells): nuclear fragmentation, chromatin condensation, and formation of multiple autophagosomes, consistent with apoptosis
effect on ZF embryo ([1]; 200 μM, 30 minutes): start of cell fusion
effect on ZF embryo ([1]; 200 μM, 60 minutes): cell division blockade, total fusion and developmental arrest
effect on ZF embryo ([1]; 400 μM, 30 minutes): deterioration of cell division and start of cell fusion
effect on ZF embryo ([1]; 400 μM, 60 minutes): cell division blockade, total fusion and developmental arrest
effect on two-cell stage ZF embryos ([1]; 200 and 400 μM): developed normally for 30 minutes, up to the 8-cell stage, and then showed an immediate arrest of proliferation followed by cell fusion
inhibition of all cell lines (human tumor cell lines): inhibited by COBRA-1 in a dose-dependent fashion
effect on GTP-dependent tubulin polymerization (turbidity) (Bovine brain tubulin): caused partial depolymerization of tubulin and inhibited its polymerization in the presence of GTP
IC50 (SQ20B): 140 µM
cell morphology (U373 brain tumor cells [2]; after 1 hour): only trailing edges are present
cell morphology (U373 brain tumor cells [2]; within 40 minutes of drug addition): only one membrane ruffle is still evident
onset of induced apoptosis after exposure (U373 brain tumor cells [2]; tumor cells (U373)): approximately 1 hour
time to total destruction (U373 brain tumor cells [2]; tumor cells (U373)): ≤ 24 h
cell morphology / microtubules ([3]; BT-20, 100 μM, 24 hours): the cells shrink and the microtubules become less organized
cell morphology / microtubules ([3]; BT-20, 200 μM): cell death with nuclear fragmentation and complete loss of microtubule formation
cell morphology / microtubules (U373 brain tumor cells [4]; U373, 100 μM): induces abnormal tubulin structures
cell morphology / microtubules (U373 brain tumor cells [4]; U373, 200 μM): cell death with nuclear fragmentation and complete loss of microtubule formation

IC50 (U87; Homo sapiens, U-87 MG): > 250 µM
IC50 (MDA-MB-231; Homo sapiens): > 250 µM
IC50 (PC-3; Homo sapiens): > 250 µM
SMILES: OC(CSOOc1ccccc1)C1CCC(COCc2ccccc2)O1 (centres unmarked) [Compound 8.2]
IC50 (NALM-6; Homo sapiens): > 250 µM
IC50 (SQ20B; Homo sapiens): > 250 µM

SMILES: C=CCC[C@H](O)[C@H]1CC[C@H]([C@H](O)CCCCCCCCCCCC)O1 [COBRA-2]
effect on GTP-dependent tubulin polymerization (turbidity) (Bovine brain tubulin): caused partial depolymerization of tubulin and inhibited its polymerization in the presence of GTP
cell morphology / microtubules ([3]; BT-20, 100-200 μM): cell death with nuclear fragmentation and complete loss of microtubule formation
cell morphology / microtubules ([3]; BT-20, 24 hours (FIG. 10B)): the cells shrink and the microtubules become less organized
cell morphology / microtubules (U373 brain tumor cells [4]; U373, 100-200 μM): cell death with nuclear fragmentation and complete loss of microtubule formation
cell morphology / microtubules (U373 brain tumor cells [4]; U373, 24 hours (FIG. 10E)): the cells shrink and the microtubules become less organized

SMILES: CC(=O)O[C@H]1C(=O)[C@@]2(C)[C@H]([C@H](OC(=O)c3ccccc3)[C@]3(O)C[C@H](OC(=O)[C@H](O)[C@@H](NC(=O)c4ccccc4)c4ccccc4)C(C)=C1C3(C)C)[C@]1(OC(C)=O)CO[C@@H]1C[C@@H]2O [paclitaxel, reference compound]
effect on ZF embryos ([1]; 400 μM in EM): developmental abnormalities after 90 minutes of exposure
